Assay results as given in patent US20230250169A1, “AXL Inhibitors for Antiviral Therapy” (BERGENBIO ASA, priority 2020, published 2023).
Entries after “also recorded” stand apart in the source; their conditions may differ. Read-outs that look alike come from different tables or passages of the source.

Legend:
[1] = system: VSV/SARS-CoV-2 spike pseudovirion; type: cell-based
[2] = system: Mouse Hepatitis Virus (MHV) strain A59; test: Mouse hepatitis virus (MHV A59) infection of murine bone marrow-derived macrophages, virus load by qRT-PCR; type: cell-based; settings: for MHV virus load in WT mBMDM: WT cells, pretreated and kept on cells
[3] = system: VSV/SARS-CoV-2 spike pseudovirions; type: cell-based, Green African Monkey
[4] = system: SARS-CoV-2; type: cell-based
[5] = system: SARS-CoV-2; test: SARS-CoV-2 binding on Vero E6 cells (qRT-PCR of bound viral RNA); type: cell-based, Green African Monkey; settings: MOI=5, 15° C., 60 m
Protocol: FIG. 9 • Evaluation of SARS-CoV-2 binding on Vero E6 cells. Cells were incubated with virus (MOI=5) and treatments noted at 15° C. for 60 m. Subsequently, some cells were treated with trypsin to remove bound virus. All cells were washed extensively to remove unbound virus and cells were extracted for RNA. Viral load was determined and normalized for the host gene GAPDH. This is one of 3 different experiments yielding similar results.
In an additional set of studies with Vero E6 cells, it was evaluated whether bemcentinib or PS liposomes blocked VT SARS-CoV-2 binding. Using an MOI of 5, SARS-CoV-2 was incubated at 15° C. for 60 m with Vero E6 cells in the presence of bemcentinib or PS liposomes. Phosphatidylcholine (PC) liposomes were incubated with the cells as a control for PS-mediated viral competition; trypsin was added after virus binding to some cells as a negative control. Cells were placed in Trizol and virus binding was assessed by qRT-PCR detection of viral RNA genomes as compared to the level of a housekeeping gen mRNA, GAPDH. […] Similar studies in Vero E6 cells and other more relevant lung cells will be performed to assess virus internalization following virus binding.

[6] = system: SARS-CoV-2; type: cell-based; settings: A549-hACE2 and Vero E6 cells, 1 uM, 24 h, preliminary
[7] = system: SARS-CoV-2; type: cell-based; settings: for sensitivity of SARS-CoV-2 infection to inhibitor: three of the lung tumor lines from John Minna, representative data
[8] = system: SARS-CoV-2; type: cell-based; settings: MOI=0.1, 24 h, inhibitor added prior to infection
[9] = system: SARS-CoV-2; test: BGBC020 and ACCORD-2 studies taken together; type: in vivo, human; settings: across both BGBC020 and ACCORD-2 studies; SoC 10
[10] = system: SARS-CoV-2; test: SARS-CoV-2 salivary viral load (quantitative PCR) in BGBC020 patients; type: in vivo
[11] = system: SARS-CoV-2; test: Clinical case report: COVID-19 in a lung cancer patient on bemcentinib+erlotinib; type: in vivo
[12] = system: Ebola virus; settings: one of only two of sixty compounds; cited from earlier work
[13] = system: SARS-CoV-2; settings: Vero E6 and CaIU3, Dittmar et al; cited from earlier work
[14] = system: MHV; test: MHV-infected C57BL/6 mice treated by gavage
[15] = system: SARS-CoV-2; test: Phase 2 clinical trial ACCORD-2 (UK), hospitalised COVID-19 patients
[16] = system: SARS-CoV-2; test: Phase 2 clinical trial BGBC020 (India, South Africa), hospitalised COVID-19 patients, bemcentinib plus SoC versus SoC
[17] = system: SARS-CoV-2; type: cell-based, Green African Monkey
[18] = one high-risk patient on bemcentinib+erlotinib

CN(C)C(=O)COC(=O)Cc1ccc(OC(=O)c2ccc(NC(=N)N)cc2)cc1 [camostat]
hACE2-dependent pseudovirion infection (luminescence) [1]: blocked infection, but to a lesser extent

Nc1nc(Nc2ccc3c(c2)CC[C@@H](N2CCCC2)CC3)nn1-c1cc2c(nn1)-c1ccccc1CCC2 [bemcentinib, 1-(6,7-dihydro-5H-benzo[6,7]cyclohepta[1,2-c]pyridazin-3-yl)-N^3-((7-(S)-pyrrolidin-1-yl)-6,7,8,9-tetrahydro-5H-benzo[7]annulene-2-yl)-1H-1,2,4-triazole-3,5-diamine]
MHV infection of mBMDM (MHV spike gene, qRT-PCR) ([2]; 1 μM, 24 h, p=0.034 in one-way ANOVA): significantly reducing infection
reduction of MHV virus load in ISG15 (KO) and USP18C61A/C61A mBMDM ([2]; 1 μM, 24 h, trend to lower virus load): not statistically significant; also recorded: did not reach statistical significance
inhibitory effect on virus infection ([2]; BMDM from ISG15-null and USP18C61A/C61A mice, compared with wild type): more variable and in general reduced
viral-induced syncytia formation ([2]; MHV-infected BMDM cultures): reduced
MHV virus load in WT mBMDM ([2]; 1 μM, 24 h): significantly reduced MHV infection
MHV virus load in WT mBMDM ([2]; 1 μM, 24 h, listed as Bemcentinib): reduces virus load
MHV infection of mBMDM (MHV spike gene, qRT-PCR) ([2]; increasing concentrations, MOI 0.01, 24 h): inhibitory trend; also recorded: did inhibit MHV infection
MHV infection of mBMDM (MHV spike gene, qRT-PCR) ([2]; increasing concentrations, MOI 0.01, 24 h, listed as Bemcentinib): inhibits MHV infection
coronavirus load in cells ([2]; primary murine BMDM, MHV, 1 μM, 20 h following infection, preliminary): reduces coronavirus load
SARS-CoV-2 spike dependent pseudovirion infection of Vero E6 cells [3]: highly effective; also recorded: inhibited pseudovirus infection
SARS-CoV-2 infection of CalU3 cells (viral load) [4]: did not inhibit
SARS-CoV-2 binding to Vero E6 cells [5]: no effect
SARS-CoV-2 viral transcripts (RNAseq) [6]: dramatically reduced
SARS-CoV-2 viral transcripts (RNAseq) ([6]; listed as Bemcentinib): significantly reduced
Sensitive to Bemcentinib ([7]; lung line 820): Yes
Sensitive to Bemcentinib ([7]; lung line CalU3): No
Sensitive to Bemcentinib ([7]; lung line H322): Yes
Sensitive to Bemcentinib ([7]; lung line H1650): Yes
Sensitive to Bemcentinib ([7]; lung line H1819): No
Sensitive to Bemcentinib ([7]; lung line H3255): No
Sensitive to Bemcentinib ([7]; lung line HCC1944): Mixed findings
Sensitive to Bemcentinib ([7]; lung line HCC2302): Yes
Sensitive to Bemcentinib ([7]; lung line HCC4207): Mixed findings
Sensitive to Bemcentinib ([7]; lung line HCC4256): No
Sensitive to Bemcentinib ([7]; lung line HSAEC13): Mixed findings
sensitivity of SARS-CoV-2 infection to inhibitor [7]: sensitive
SARS-CoV-2 virus load in Huh7 cells [8]: inhibited virus infection in a dose dependent manner
COVID-19 related deaths [9]: 3
patients with salivary viral load below LLOQ (500 copies/mL) ([10]; absence of another antiviral, day 8 (8 of 12), SoC 37.5%): approximately 66%
patients with salivary viral load below LLOQ (500 copies/mL) ([10]; absence of another antiviral, day 11 (3 of 3), SoC 60%): 100%
rate of viral clearance ([10]; day 11, all patients, SoC 57%): 100%
patients with salivary viral load below LLOQ (500 copies/mL) ([10]; presence of another antiviral (remdesivir or favipiravir), day 8 (9 of 11), SoC 54%): approximately 82%
patients with salivary viral load below LLOQ (500 copies/mL) ([10]; presence of another antiviral (remdesivir or favipiravir), day 11 (9 of 9), SoC 56%): 100%
COVID-19 disease course [11, 18]: 7 days
course of COVID-19 [11, 18]: very mild
transmission to co-habiting partner ([11]; one patient on bemcentinib+erlotinib): lack of transmission
effect against Ebola infection in animal models [12]: some protective/therapeutic effect
SARS-CoV-2 infection in both cell types [13]: reported to inhibit
virus load in liver ([14]; C57BL/6 mice, 50,000 iu MHV, versus pooled untreated and vehicle only groups, Student's t test): significantly reduced virus load
type I interferon responses (IFN related gene expression) ([14]; MHV-infected C57BL/6 mice, day 3, spleen and liver RNA): enhancing type I interferon responses
Laboratory TRAE (haem or chemistry) ([15]; ACCORD-2): no TRAE haem or chemistry
QTcF prolongation ([15]; ACCORD-2): No reported QTcF prolongation
Mortality ([15]; by D29, of 30 patients, SoC 6 of 30): 1 patients
QTcF prolongation >501 msec ([16]; BGBC020): No QTcF prolongation
SUSAR ([16]; BGBC020): No SUSAR
Time to NEWS2 score ≤2, Hazard ratio (95% CI) ([16]; BGBC020 interim results, secondary endpoint): 1.10 (0.70, 1.73)
Mortality ([16]; by D29, of 58 patients, SoC 4 of 57): 2 patients
worsening by 1, 2 or 3 points on WHO scale ([16]; days 2, 8, 15 and 29, versus standard of care alone): lower proportion of individual patients experiencing worsening
SAE ([16]; of 58 patients, SoC 4): 5 patients
NEWS2 normalisation ([16]; versus SoC, interim): favours bemcentinib arm within week 1
time to WHO OCS improvement or discharge (primary endpoint) ([16]; versus SoC, particularly with higher baseline CRP, interim): Favours the bemcentinib arm

CC(C)C[C@H](NC(=O)[C@H]1O[C@@H]1C(=O)O)C(=O)NCCCCN=C(N)N [E64]
hACE2-dependent pseudovirion infection (luminescence) [1]: effectively blocked infection
WT SARS-CoV-2 infection of Vero E6 cells (viral load) [17]: blocked infection
sensitivity of SARS-CoV-2 infection to inhibitor [7]: sensitive
